# According to patent EP4186382A1, “MESH MATERIALS FOR CONTROLLED RELEASE OF ANTIVIRALS, METHOD AND USE” (Universidade Federal de Minas Gerais, priority 2020, dated 2022):
# Where “and” joins values, the source holds several entries; their conditions need not be identical. Equal values may be shown once. Read-outs that look alike come from different tables or passages of the source.
# Assays:
# [1] = system: Coronavirus (MHV-3 Strain); type: cell-based, Coronavirus MHV-3 Strain genus Betacoronavirus
# [2] = Solubility in water when preparing calibration standards; type: physicochemical
# Method: The calibration curve used the following standards: Standard #1 - 99.5% chlorhexidine (CAS 55-56-1) from Sigma-Aldrich, Standard #2 - 20% solution of chlorhexidine digluconate in solution (CAS 18472-51-0). Samples with both standards were prepared in deionized water. […] With Standard #2 it was possible to obtain a good reproducibility of the areas; therefore, it was decided to perform the calibration curve with standard #2.
structure (smiles),measurement,setting,value
"N=C(NCCCCCCNC(=N)NC(=N)Nc1ccc(Cl)cc1)NC(=N)Nc1ccc(Cl)cc1 [5% Chlorhexidine, 1,1'-hexamethylene-bis(5-(p-chlorophenyl)-biguanide)]",time after which activity was lost,[1]; concentration of 5%,≤ 10 min
same,Infectivity Reduction (Virus Titer 10^8/mL),[1]; contact time 1 minute,10^4
same,Coronavirus (MHV-3 Strain) inactivation,"[1]; contact time 1 minute, listed as Chlorhexidine 5.0%",99.99%
same,Infectivity Reduction (Virus Titer 10^8/mL),[1]; contact time 5 minutes,10^4
same,Coronavirus (MHV-3 Strain) inactivation,"[1]; contact time 5 minutes, listed as Chlorhexidine 5.0%",99.99%
same,Coronavirus (MHV-3 Strain) inactivation,[1]; contact time 10 minutes,99.9% and 99.99%
same,Infectivity Reduction (Virus Titer 10^8/mL),[1]; contact time 10 minutes,10^5
same,Coronavirus (MHV-3 Strain) inactivation,"[1]; contact time 10 minutes, listed as Chlorhexidine 5.0%",99.9%
same,Coronavirus (MHV-3 Strain) inactivation,[1]; contact time 1 hour,Not effective
same,Coronavirus (MHV-3 Strain) inactivation,[1]; contact time 4 hours,Not effective
same,Coronavirus (MHV-3 Strain) inactivation,[1]; contact time Immediate,Not Effective
"[H]/N=C(\N/C(=N/[H])NCCCCCCNC(=N)NC(=N)Nc1ccc(Cl)cc1)Nc1ccc(Cl)cc1 [Chlorhexidine, 1,1'-hexamethylene-bis(5-(p-chlorophenyl)-biguanide)]",solubility in water,[2],very low solubility in water
N=C(NCCCCCCNC(=N)NC(=N)Nc1ccc(Cl)cc1)NC(=N)Nc1ccc(Cl)cc1.O=C(O)[C@H](O)[C@@H](O)[C@H](O)[C@H](O)CO.O=C(O)[C@H](O)[C@@H](O)[C@H](O)[C@H](O)CO [chlorhexidine digluconate],solubility in water,[2]; deionized water,no solubility problems
